# Data taken from patent publication US11642344B2, “Cholesteryl ester transfer protein (CETP) inhibitor and pharmaceutical compositions comprising said inhibitor for use in the treatment or prevention of cardiovascular diseases” (NewAmsterdam Pharma B.V., priority 2014, dated 2023).
# Experiments:
# CETP [1] = assay: Ex vivo serum CETP activity after oral administration to hamsters; design: species or system Syrian Golden hamsters; details: 3 mg/kg oral, suspension in 0.5% CMC, serum 3 hours after administration
# Protocol: Syrian Golden hamsters were used for the experiment after 1-week acclimatization. After an overnight fast, animals were orally given the compound suspension in 0.5% sodium carboxymethylcellulose in a volume of 10 mL/kg. Under deep anesthesia with ether, blood was collected from the abdominal aorta 3 hours after the administration. For preparation of serum, the collected blood was transferred to a plastic tube containing a clot activator, left still for 15 minutes at room temperature and centrifuged. Serum CETP activities were determined immediately.
# Ninety-five μL serum were added to 5 μL of […] sodium phosphate buffered saline (pH 7.0) containing 1.5 mM 5,5′-dithio-bis(2-nitrobenzoic acid) in two 96-well V-bottom plates. One plate was incubated at 4° C. and the other was incubated at 37° C. After 18 hours of incubation, each sample was mixed with 100 μL of reagent for precipitation of apolipoprotein B-containing lipoproteins (phosphotungstate/MgCl2 reagent, Wako pure chemical), left still for 10 minutes at room temperature and centrifuged. Total cholesterol (TC) and free cholesterol (FC) in supernatant were measured using commercial kits (Cholesterol E-test wako, and Free Cholesterol E-test wako; Wako pure chemical). Cholesteryl ester (CE) was calculated by subtracting FC from TC. CETP activity was determined by the following formula: CETP activity=[CETP transfer]*/[CE value in 4° C. incubation sample] *CETP transfer=[CE value in 4° C. incubation sample]−[CE value in 37° C. incubation sample] (c) Results
# CETP [2] = target: T1, CETP (Homo sapiens, UniProt P11597); assay: Clinical repeated dose study: plasma CETP activity; assay type: in vivo; details: for Maximum % change from baseline in CETP activity: repeated oral doses, steady state, mean
# T1 construct: from tissue; host or cells: plasma of Caucasian male subjects dosed with Compound A or placebo
# T1 sequence (P11597 18-493): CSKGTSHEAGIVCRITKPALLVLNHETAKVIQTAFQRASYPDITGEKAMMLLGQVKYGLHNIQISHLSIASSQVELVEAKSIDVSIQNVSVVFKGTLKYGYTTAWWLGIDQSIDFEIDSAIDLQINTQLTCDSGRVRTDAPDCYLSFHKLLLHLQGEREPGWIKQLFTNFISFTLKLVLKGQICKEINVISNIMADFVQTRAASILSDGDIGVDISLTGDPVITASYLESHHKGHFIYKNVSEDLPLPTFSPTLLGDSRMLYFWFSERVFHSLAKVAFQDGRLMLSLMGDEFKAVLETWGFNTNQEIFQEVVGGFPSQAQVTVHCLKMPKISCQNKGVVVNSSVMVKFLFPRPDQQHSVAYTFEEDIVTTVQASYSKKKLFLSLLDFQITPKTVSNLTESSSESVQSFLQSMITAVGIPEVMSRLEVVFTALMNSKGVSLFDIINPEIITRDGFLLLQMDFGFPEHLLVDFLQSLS
# Protocol: (§1) The clinical study was a repeated dose study in 5 groups of Caucasian male subjects aged 18 to 55 years. Each subject received a single oral dose of Compound A/placebo on Day 1, followed by once daily doses on Days 8 to 35 (5 mg Compound A/placebo—Group 1) or Days 8 to 28 (1, 2.5, 10 and 25 mg Compound A/placebo—Groups 2 to 5). All doses were administered at the study center after a standard breakfast. Subjects in each dose group were allocated to study treatment in a ratio of 10 Compound A to 2 placebo. Blood samples for pharmacokinetic and pharmacodynamic (CETP activity, CETP concentration, HDL-C, LDL-C, total cholesterol, triglycerides) assessments were collected from prior to each dose and at intervals throughout the study until 336 hours after the last dose. Secondary pharmacodynamic endpoints (including apolipoproteins A1, A2, B, and E, HDL2-C, HDL3-C, phospholipids, HDL-free cholesterol [HDL-FC], HDL-cholesteryl ester [HDL-CE], HDL-phospholipids [HDL-PL], HDL-triglycerides [HDL-TG], and LDL particle size) were measured at intervals until the last day of dosing. Urine was collected for pharmacokinetics from pre dose and at intervals up to 72 hours after the first and last dose. Safety assessments including adverse events, blood pressure and pulse rate, ECGs, laboratory safety tests (including aldosterone) and physical examinations were conducted throughout both studies.
# (§2) Plasma and urine concentrations of Compound A were determined using validated liquid chromatography with tandem mass spectrometry (LC/MS/MS) methods. The lower limit of quantification (LLQ) for both assays was 0.500 ng/mL. Plasma concentration of CETP was determined using a validated enzyme-linked immunosorbent assay (ELISA) method with a lower limit of quantification (LLQ) of 0.500 μg/mL. CETP activity was determined as the rate of [^3H]-labeled CE transfer from donor HDL to acceptor VLDL/LDL. [^3H]CE-labeled HDL was added to human plasma and incubated for 4 hours at 37° C. Non-HDL lipoproteins were precipitated and separated from HDL, and the amount of radioactivity in the supernatant was quantitated. CETP activity was determined as the difference of the radioactivity between the samples incubated at 37° C. and 4° C. HDL-C and LDL-C were measured by homogenous enzymatic colorimetric assay using a Modular analyser (Roche Diagnostics). Total cholesterol and triglycerides were measured by homogenous enzymatic assay using a Modular analyser (cholesterol oxidase peroxidase-peroxidase aminophenazone phenol [CHOP-PAP]) method and a glycerol phosphate oxidase [GPO-PAP] method, respectively. ApoA1, ApoA2, ApoB and ApoE were measured by immunoturbidimetry using reagents from Rolf Greiner Biochemica (Germany) and N-apoprotein standard serum from Siemens (Germany). LDL particle size was determined by gradient gel electrophoresis. HDL fraction was separated by a combined ultracentrifugation-precipitation method (Beta-quantification). HDL-2 and HDL-3 fractions were then separated by further ultracentrifugation. Total-cholesterol in HDL, HDL-2 and HLD-3 fractions, free cholesterol in HDL fraction, triglycerides in HDL fraction and phospholipids in plasma and HDL-fraction were measured using enzymatic methods and reagents from Diasys Diagnostics (Germany). The measurements were performed on an Olympus AU600 automatic analyzer and were calibrated using secondary standards from Roche Diagnostics (Total-cholesterol, triglycerides) and Diasys Diagnostics (free cholesterol, phospholipids), respectively. Esterified cholesterol was calculated as the difference between total-cholesterol and free cholesterol.
# (§3) The sample sizes for the study were chosen based on practical considerations rather than statistical power. The numbers of subjects in each group were considered to be adequate to assess the main objectives of each study. Subjects were allocated to Compound A or placebo in each group by means of a computer-generated randomization code. […]
# CETP [3] = assay: Clinical repeated dose study: plasma CETP concentration (ELISA); assay type: in vivo, human; details: for Maximum % change from baseline in CETP concentration: repeated oral doses, steady state, mean
# Protocol: as §1, §2, §3
compound,measurement,setting,value
"CCOC(=O)N1c2ccc(C(F)(F)F)cc2[C@@H](N(Cc2cc(C(F)(F)F)cc(C(F)(F)F)c2)c2ncc(OCCCC(=O)O)cn2)C[C@H]1CC [Compound A, {4-[(2-{[3,5-bis(trifluoromethyl)benzyl][(2R,4S)-1-(ethoxycarbonyl)-2-ethyl-6-(trifluoromethyl)-1,2,3,4-tetrahydroquinolin-4-yl]amino}pyrimidin-5-yl)oxy]butanoic acid}]",ex vivo (% inhibition) 3 mg/kg (CMC),CETP [1],79.2%
same,Maximum % change from baseline in CETP activity,"CETP [2]; 1 mg once daily, Caucasian male healthy subjects",−66.5%
same,Maximum % change from baseline in CETP activity,CETP [2]; 2.5 mg once daily,−91.6%
same,Maximum % change from baseline in CETP activity,CETP [2]; 5 mg once daily,−90.9%
same,Maximum % change from baseline in CETP activity,CETP [2]; 10 mg once daily,−97.6%
same,Maximum % change from baseline in CETP activity,CETP [2]; 25 mg once daily,−99.4%
same,CETP activity below baseline after last dose,CETP [2]; 2 weeks following 10 and 25 mg dosing,approximately 50%
same,CETP activity after the last dose (in words),CETP [2]; by 2 weeks following the lowest dose (1 mg),approaching baseline levels
same,time to maximum effect on CETP inhibition,"CETP [2]; once daily dosing, each dose",≤ 1 week
same,CETP inhibition (in words),CETP [2]; repeated once daily dosages as low as 2.5 mg,near complete CETP-inhibition
same,Maximum % change from baseline in CETP concentration,CETP [3]; 1 mg once daily,128%
same,Maximum % change from baseline in CETP concentration,CETP [3]; 2.5 mg once daily,144%
same,Maximum % change from baseline in CETP concentration,CETP [3]; 5 mg once daily,215%
same,Maximum % change from baseline in CETP concentration,CETP [3]; 10 mg once daily,249%
same,Maximum % change from baseline in CETP concentration,CETP [3]; 25 mg once daily,280%
same,CETP concentration higher than baseline after cessation of dosing,CETP [3]; 2 weeks following 10 mg and 25 mg,approximately 1.4 fold
same,CETP concentration after cessation of dosing (in words),CETP [3]; within 2 weeks following 1 mg and 5 mg,approaching baseline values
